Literature values in paper PMC10151178 (Brain, 2023).

Test system: IIH patients
Text: The minimal clinically important change in ICP in those with IIH has yet to be determined.[38] […] In this trial ...

CC(=O)Nc1nnc(S(N)(=O)=O)s1 [acetazolamide]
Magnitude of treatment effect on ICP between trial arms (acetazolamide and diet): 5.9 cmCSF
Patients who withdrew due to adverse effects (over a 3-month period, previous randomized controlled trial): 48%
